Test results taken from ChEMBL document CHEMBL3885861, “Open TG-GATES”.

Species: Rattus norvegicus
Test: Open TG-GATES - Regimen: Single
Format: toxicity, organism-based, Sprague-Dawley
Set-up: regimen Single, gender Male, age 6 weeks
Conditions: in vivo, po, 100 mg/kg, route gavage, dose level Middle; for APTT / Bas / Eos / Fbg / Hb / Ht / Lym / MCH / MCHC / MCV / Mono / Neu / PT / Plat / RBC / Ret / WBC: tissue Blood; for KIDNEY_L / KIDNEY_R / KIDNEY_TOTAL: tissue Kidney; for LIVER: tissue Liver; for A/G / ALP / ALT / AST / BUN / CRE / Ca / Cl / DBIL / GLC / IP / K / LDH / Na / PL / RALB / TBIL / TC / TG / TP / gamma-GTP: tissue Plasma

`CCCNC(=O)NS(=O)(=O)c1ccc(Cl)cc1` [CHLORPROPAMIDE] gave a TERMINAL_BW (3 h) of 198.7 g, an APTT (3 h) of 19.6 s and a Bas (3 h) of 0%. The Eos (3 h) was 1%, the Fbg (3 h) was 311.8 mg/dL and the Hb (3 h) was 13.9 g/dL. It also gave a Ht (3 h) of 42.7%, a Lym (3 h) of 73.2% and an MCH (3 h) of 21.4 pg. It also gave an MCHC (3 h) of 32.5%, an MCV (3 h) of 66 fL and a Mono (3 h) of 3.8%. It also gave a Neu (3 h) of 20.8%, a PT (3 h) of 15.6 s and a Plat (3 h) of 113.1 x10_4/uL. For the same molecule, the RBC (3 h) was 648.4 x10_4/ul, the Ret (3 h) was 9.2% and the WBC (3 h) was 72.2 x10_2/uL. The KIDNEY_L (3 h) was 0.9 g, the KIDNEY_R (3 h) was 0.9 g and the KIDNEY_TOTAL (3 h) was 1.8 g. It also gave an LIVER (3 h) of 8.8 g, an A/G (3 h) of 0.9 and an ALP (3 h) of 1315.6 IU/L. It also gave an ALT (3 h) of 48.8 IU/L, an AST (3 h) of 80 IU/L and a BUN (3 h) of 11.2 mg/dL. It also gave a CRE (3 h) of 0.2 mg/dL, a Ca (3 h) of 10.8 mg/dL and a Cl (3 h) of 107.8 meq/L. It also gave a DBIL (3 h) of 0.01 mg/dL, a GLC (3 h) of 126.4 mg/dL and an IP (3 h) of 9.2 mg/dL. For the same molecule, the K (3 h) was 3.8 meq/L, the LDH (3 h) was 71.6 IU/L and the Na (3 h) was 144.6 meq/L. It also gave a PL (3 h) of 129 mg/dL, an RALB (3 h) of 2.6 g/dL and a TBIL (3 h) of 0.02 mg/dL. It also gave a TC (3 h) of 74.6 mg/dL, a TG (3 h) of 71 mg/dL and a TP (3 h) of 5.7 g/dL. For the same molecule, the gamma-GTP (3 h) was 1.4 IU/L, the TERMINAL_BW (6 h) was 194.9 g and the APTT (6 h) was 23.7 s. It also gave a Bas (6 h) of 0.2%, an Eos (6 h) of 1% and a Fbg (6 h) of 317 mg/dL. For the same molecule, the Hb (6 h) was 13.6 g/dL, the Ht (6 h) was 41.9% and the Lym (6 h) was 71.6%. It also gave an MCH (6 h) of 21.7 pg, an MCHC (6 h) of 32.4% and an MCV (6 h) of 66.9 fL. For the same molecule, the Mono (6 h) was 3.6%, the Neu (6 h) was 22.4% and the PT (6 h) was 15.1 s. It also gave a Plat (6 h) of 122.2 x10_4/uL, an RBC (6 h) of 627 x10_4/ul and a Ret (6 h) of 9.8%. It also gave a WBC (6 h) of 96.8 x10_2/uL, a KIDNEY_L (6 h) of 0.9 g and a KIDNEY_R (6 h) of 0.8 g. The KIDNEY_TOTAL (6 h) was 1.7 g, the LIVER (6 h) was 8 g and the A/G (6 h) was 0.9. The ALP (6 h) was 1525.8 IU/L, the ALT (6 h) was 44.2 IU/L and the AST (6 h) was 80.8 IU/L. It also gave a BUN (6 h) of 12.6 mg/dL, a CRE (6 h) of 0.2 mg/dL and a Ca (6 h) of 11 mg/dL. For the same molecule, the Cl (6 h) was 109 meq/L, the DBIL (6 h) was 0.002 mg/dL and the GLC (6 h) was 123.8 mg/dL. It also gave an IP (6 h) of 9.9 mg/dL, a K (6 h) of 4 meq/L and an LDH (6 h) of 81 IU/L. The Na (6 h) was 143.8 meq/L, the PL (6 h) was 139.6 mg/dL and the RALB (6 h) was 2.6 g/dL. For the same molecule, the TBIL (6 h) was 0.02 mg/dL, the TC (6 h) was 85.4 mg/dL and the TG (6 h) was 49.8 mg/dL. For the same molecule, the TP (6 h) was 5.7 g/dL, the gamma-GTP (6 h) was 1.2 IU/L and the TERMINAL_BW (9 h) was 194.2 g. It also gave an APTT (9 h) of 17.1 s, a Bas (9 h) of 0% and an Eos (9 h) of 1%. The Fbg (9 h) was 307.8 mg/dL, the Hb (9 h) was 13.1 g/dL and the Ht (9 h) was 40.7%. It also gave a Lym (9 h) of 71.4%, an MCH (9 h) of 20.9 pg and an MCHC (9 h) of 32.3%. For the same molecule, the MCV (9 h) was 64.8 fL, the Mono (9 h) was 3% and the Neu (9 h) was 24%. The PT (9 h) was 15.1 s, the Plat (9 h) was 119.5 x10_4/uL and the RBC (9 h) was 627.4 x10_4/ul. The Ret (9 h) was 10%, the WBC (9 h) was 82.5 x10_2/uL and the KIDNEY_L (9 h) was 0.9 g. It also gave a KIDNEY_R (9 h) of 0.9 g, a KIDNEY_TOTAL (9 h) of 1.8 g and an LIVER (9 h) of 7.8 g. For the same molecule, the A/G (9 h) was 0.9, the ALP (9 h) was 1124.6 IU/L and the ALT (9 h) was 35.6 IU/L. It also gave an AST (9 h) of 77 IU/L, a BUN (9 h) of 9.8 mg/dL and a CRE (9 h) of 0.2 mg/dL. For the same molecule, the Ca (9 h) was 10.7 mg/dL, the Cl (9 h) was 107.6 meq/L and the DBIL (9 h) was 0 mg/dL. The GLC (9 h) was 119.4 mg/dL, the IP (9 h) was 10.1 mg/dL and the K (9 h) was 3.9 meq/L. For the same molecule, the LDH (9 h) was 68.6 IU/L, the Na (9 h) was 143.2 meq/L and the PL (9 h) was 120.4 mg/dL. The RALB (9 h) was 2.5 g/dL, the TBIL (9 h) was 0.026 mg/dL and the TC (9 h) was 70.8 mg/dL. For the same molecule, the TG (9 h) was 37 mg/dL, the TP (9 h) was 5.4 g/dL and the gamma-GTP (9 h) was 1.2 IU/L. For the same molecule, the TERMINAL_BW (24 h) was 210.9 g, the APTT (24 h) was 20 s and the Bas (24 h) was 0%. It also gave an Eos (24 h) of 1%, a Fbg (24 h) of 318.2 mg/dL and a Hb (24 h) of 12.6 g/dL. For the same molecule, the Ht (24 h) was 39.1%, the Lym (24 h) was 73% and the MCH (24 h) was 21 pg. It also gave an MCHC (24 h) of 32.2%, an MCV (24 h) of 65.2 fL and a Mono (24 h) of 3.6%. The Neu (24 h) was 21%, the PT (24 h) was 15.8 s and the Plat (24 h) was 111.8 x10_4/uL. For the same molecule, the RBC (24 h) was 599.4 x10_4/ul, the Ret (24 h) was 9.2% and the WBC (24 h) was 97.9 x10_2/uL. It also gave a KIDNEY_L (24 h) of 0.9 g, a KIDNEY_R (24 h) of 1 g and a KIDNEY_TOTAL (24 h) of 1.9 g. For the same molecule, the LIVER (24 h) was 9.6 g, the A/G (24 h) was 0.9 and the ALP (24 h) was 1496.2 IU/L. The ALT (24 h) was 45.4 IU/L, the AST (24 h) was 70.2 IU/L and the BUN (24 h) was 15.6 mg/dL. For the same molecule, the CRE (24 h) was 0.2 mg/dL, the Ca (24 h) was 10.9 mg/dL and the Cl (24 h) was 105.8 meq/L. For the same molecule, the DBIL (24 h) was 0.004 mg/dL, the GLC (24 h) was 177.4 mg/dL and the IP (24 h) was 8.4 mg/dL. The K (24 h) was 3.7 meq/L, the LDH (24 h) was 87.2 IU/L and the Na (24 h) was 143 meq/L. The PL (24 h) was 145 mg/dL, the RALB (24 h) was 2.6 g/dL and the TBIL (24 h) was 0.032 mg/dL. It also gave a TC (24 h) of 81.4 mg/dL, a TG (24 h) of 63.6 mg/dL and a TP (24 h) of 5.5 g/dL. For the same molecule, the gamma-GTP (24 h) was 1 IU/L.
